These are literature values, as cited in patent US20180256556A1, “METHODS FOR TREATING AN IMPAIRMENT IN GAIT AND/OR BALANCE IN PATIENTS WITH MULTIPLE SCLEROSIS USING AN AMINOPYRIDINE” (Acorda Therapeutics, Inc., priority 2012, published 2018).

The test system of data set [1] is patients with multiple sclerosis. As to conditions: p<0.05.
For data set [2], the system named is potassium channels. As to conditions: high concentration (millimolar).

Regarding `Nc1ccncc1` [4-AP, 4-aminopyridine], the “Leg strength (LEMMT) relative to placebo” value in data set [1] is reported as “statistically significantly improved”. Also, the “Potassium channel blocking activity” value in data set [2] is reported as “broad-spectrum blocker of potassium channels”.
